Reference: ChEMBL document CHEMBL5528063, “Antitrypanosomal Chloronitrobenzamides” (J Med Chem, 2024)
The source made the active and inactive calls. The rule behind the calls is not given here.

Key:
[1] = Metabolic stability in […] mouse liver microsomes assessed as intrinsic clearance at 20 uM measured after 2 hrs by UPLC-MS analysis; type: ADME, Microsome; conditions: read-out: CLH
[2] = Stability of compound in PBS at pH 5 assessed as half-life measured after 48 hrs by UPLC-MS analysis; type: physicochemical
[3] = Oral bioavailability in Sprague-Dawley rat at 50 mg/kg measured after 45.3 hrs by LC/MS analysis; type: ADME, organism-based; conditions: in vivo
[4] = Metabolic stability in rat liver microsomes assessed as intrinsic clearance at 20 uM; type: ADME, Microsome; conditions: read-out: CLH
[5] = Elimination half-life in C57BL/6 mouse at 50 mg/kg, po measured after 144 hrs by LC-MS/MS analysis; type: ADME, organism-based; conditions: in vivo, read-out: beta t1/2 (converted)
Trypanosoma congolense [6] = assay: Antitrypanosomal activity against Trypanosoma congolense IL3000 assessed as inhibition of parasite proliferation incubated for 69 hrs by resazurin dye based microplate fluorometric analysis; type: functional, organism-based; conditions: IL3000, 69 h
Raji = assay: Cytotoxicity against human Raji cells assessed as inhibition of cell growth incubated for 72 hrs by CellTiter-Glo luminescence assay; type: functional, cell-based
[7] = Cytotoxicity against human BJ cells assessed as inhibition of cell growth incubated for 72 hrs by CellTiter-Glo luminescence assay; type: toxicity, cell-based
[8] = Aqueous solubility of compound in 1-propanol at pH 7.4 incubated for 18 hrs by UV spectrum analysis; type: physicochemical; conditions: 1-propanol (aqueous, pH 7.4), pH 7.4
[9] = Metabolic stability in rat liver microsomes assessed as half-life at 20 uM; type: ADME, Microsome
[10] = Metabolic stability in human liver microsomes assessed as intrinsic clearance at 20 uM incubated for 2 hrs by UPLC-MS analysis; type: ADME, Microsome; conditions: read-out: CLH
[11] = Metabolic stability in […] mouse liver microsomes assessed as half-life at 20 uM measured after 2 hrs by UPLC-MS analysis; type: ADME, Microsome
[12] = Stability of compound in PBS at pH 3 assessed as half-life measured after 48 hrs by UPLC-MS analysis; type: physicochemical
Trypanosoma vivax = assay: Antitrypanosomal activity against Trypanosoma vivax STIB 719/ ILRAD 560 assessed as inhibition of parasite proliferation incubated for 45 hrs by resazurin dye based microplate fluorometric analysis; type: functional, organism-based; conditions: STIB 719/ ILRAD 560, 45 h
[13] = system: Trypanosoma brucei brucei; assay: Trypanocidal activity against Trypanosoma brucei brucei 427 assessed as reduction in parasitemia at 8 uM incubated for 4 days by clonal dilution based CellTiter-Glo assay; type: functional, organism-based; conditions: time 4.0 day
[14] = Protein binding in rat plasma at 20 uM incubated for 18 hrs by UPLC-MS analysis; type: ADME, cell-free; conditions: read-out: PPB (converted)
[15] = system: Trypanosoma brucei brucei; assay: Trypanocidal activity against Trypanosoma brucei brucei 427 assessed as reduction in parasitemia at 0.1 to 1.5 uM incubated for 4 days in presence of nifurtimox by CellTiter-Glo assay; type: functional, organism-based; conditions: dose 0.1-1.5 µM, time 4.0 day
[16] = Tmax in C57BL/6 mouse at 50 mg/kg, po measured after 144 hrs by LC-MS/MS analysis; type: ADME, organism-based; conditions: in vivo
[17] = system: Trypanosoma brucei brucei; assay: Antitrypanosomal activity against Trypanosoma brucei brucei 427 assessed as reduction in parasitemia in presence of fetal bovine serum; type: functional, organism-based
[18] = Permeability of compound at pH 7.4 incubated for 30 mins by PAMPA-GIT assay; type: ADME; conditions: read-out: permeability
[19] = Metabolic stability in human liver microsomes assessed as half-life at 20 uM incubated for 2 hrs by UPLC-MS analysis; type: ADME, Microsome
[20] = Efflux ratio of apparent permeability from basolateral to apical side over apical to basolateral side in human Caco-2 cells incubated for 2 hrs by UPLC/MS analysis; type: ADME, cell-based
[21] = Cytotoxicity against HEK293 cells assessed as inhibition of cell growth incubated for 72 hrs by CellTiter-Glo luminescence assay; type: toxicity, cell-based; conditions: human
[22] = Protein binding in human plasma at 20 uM incubated for 18 hrs by UPLC-MS analysis; type: ADME, cell-free; conditions: read-out: PPB (converted)
[23] = system: Trypanosoma brucei rhodesiense; assay: Antitrypanosomal activity against Trypanosoma brucei rhodesiense STIB900 infected in NMRI mouse model assessed as survival at 50 mg/kg, po pre-infected for 3 days followed by compound administration for 4 days and measured 60 days post infection (reference value: 7 day); type: functional; conditions: time 57 day
Trypanosoma congolense [24] = assay: Antitrypanosomal activity against Trypanosoma congolense STIB 736/IL-1180 infected in NMRI mouse model assessed as survival at 50 mg/kg, ip administrated […] starting from day 7 to day 10 post infection (reference value: 11 day); type: functional
[25] = Cmax in C57BL/6 mouse at 50 mg/kg, po measured after 144 hrs by LC-MS/MS analysis; type: ADME, organism-based; conditions: in vivo
[26] = Protein binding in mouse plasma at 20 uM incubated for 18 hrs by UPLC-MS analysis; type: ADME, cell-free; conditions: read-out: PPB (converted)
[27] = Stability in human plasma assessed as half-life measured after 24 hrs by UPLC-MS analysis; type: ADME, cell-free
[28] = Stability of compound in SGF assessed as half-life measured after 24 hrs by UPLC-MS analysis; type: ADME
[29] = Clearance in C57BL/6 mouse at 50 mg/kg, po measured after 144 hrs by LC-MS/MS analysis; type: ADME, organism-based; conditions: in vivo
[30] = Stability in mouse plasma assessed as half-life measured after 24 hrs by UPLC-MS analysis; type: ADME, cell-free
HepG2 = assay: Cytotoxicity against human HepG2 cells assessed as inhibition of cell growth incubated for 72 hrs by CellTiter-Glo luminescence assay; type: functional, cell-based; conditions: HepG2, 72 h
[31] = Stability in rat plasma assessed as half-life measured after 24 hrs by UPLC-MS analysis; type: ADME, cell-free
[32] = Drug concentration in C57BL/6 mouse brain at 50 mg/kg, po measured after 144 hrs by LC-MS/MS analysis; type: ADME, organism-based; conditions: read-out: Ct
[33] = Cmax in Sprague-Dawley rat at 6 mg/kg, iv measured after 45.3 hrs by LC/MS analysis; type: ADME, organism-based; conditions: in vivo
[34] = AUC in C57BL/6 mouse at 50 mg/kg, po measured after 144 hrs by LC-MS/MS analysis; type: ADME, organism-based; conditions: in vivo
[35] = Stability of compound in PBS at pH 7.4 assessed as half-life measured after 48 hrs by UPLC-MS analysis; type: physicochemical
[36] = system: Trypanosoma brucei brucei; assay: Antitrypanosomal activity against Trypanosoma brucei brucei 427 assessed as inhibition of parasite proliferation incubated for 48 hrs by CellTiter-Glo luminescent assay; type: functional, organism-based; conditions: Trypanosoma brucei, 427, 48 h
[37] = Toxicity in Sprague-Dawley rat at 50 mg/kg, po measured after 45.3 hrs; type: organism-based; conditions: in vivo

Question: Which CLint scaled at 20 µM [1] does the source give for `Cc1ccc(-c2nc3ccccc3s2)cc1NC(=O)c1cc([N+](=O)[O-])c(N2CCN(C)CC2)cc1Cl` here?
Answer: < 14 mL/min/kg

Question: What about the half-life [2] of the same compound?
Answer: > 24 h

Question: What about the bioavailability [3] of the same compound?
Answer: 14%

Question: And the CLint scaled at 20 µM [4]?
Answer: < 12 mL/min/kg

Question: And the half-life [5]?
Answer: 7 h

Question: What about the EC50 (Trypanosoma congolense [6]) of the same compound?
Answer: 3 nM

Question: And the EC50 (Raji)?
Answer: > 25000 nM

Question: What about the EC50 at 72 h [7] of the same compound?
Answer: > 25000 nM

Question: And the solubility at 18 h [8]?
Answer: ≤ 0.3 µM

Question: And the half-life at 20 µM [9]?
Answer: > 4 h

Question: What about the CLint scaled at 20 µM [10] of the same compound?
Answer: < 6 mL/min/kg

Question: What about the half-life at 20 µM [11] of the same compound?
Answer: > 4 h

Question: What about the half-life [12] of the same compound?
Answer: > 24 h

Question: What about the EC50 (Trypanosoma vivax) of the same compound?
Answer: 6 nM

Question: What about the Activity [13] of the same compound?
Answer: inactive

Question: What about the fraction unbound at 18 h, 20 µM [14] of the same compound?
Answer: 0.007

Question: What about the Activity [15] of the same compound?
Answer: Active

Question: What about the Tmax [16] of the same compound?
Answer: 4 h

Question: What about the Activity [17] of the same compound?
Answer: Active

Question: And the Papp at 0.5 h [18]?
Answer: 237 ×10⁻⁶ cm/s

Question: And the half-life at 20 µM [19]?
Answer: > 4 h

Question: And the efflux ratio at 2 h [20]?
Answer: 1.92

Question: And the EC50 at 72 h [21]?
Answer: > 25000 nM

Question: And the fraction unbound at 18 h, 20 µM [22]?
Answer: 0.002

Question: What about the Survival [23] of the same compound?
Answer: 14 days

Question: What about the Survival (Trypanosoma congolense [24]) of the same compound?
Answer: 21 days

Question: What about the Cmax [25] of the same compound?
Answer: 6.5 µM

Question: What about the fraction unbound at 18 h, 20 µM [26] of the same compound?
Answer: 0.009

Question: And the half-life [27]?
Answer: > 24 h

Question: What about the half-life [28] of the same compound?
Answer: > 24 h

Question: What about the CL/F [29] of the same compound?
Answer: 0.357 mL/min

Question: What about the half-life [30] of the same compound?
Answer: > 24 h

Question: What about the EC50 (HepG2) of the same compound?
Answer: > 25000 nM

Question: What about the half-life [31] of the same compound?
Answer: > 24 h

Question: What about the concentration at 144 h [32] of the same compound?
Answer: 8 µM

Question: What about the Cmax [33] of the same compound?
Answer: > 10 µM

Question: What about the AUC at 144 h [34] of the same compound?
Answer: 83 µM·h

Question: And the half-life [35]?
Answer: 5.7 h

Question: What about the EC50 [36] of the same compound?
Answer: 1 nM

Question: And the Activity [37]?
Answer: Non-Toxic
